According to patent US8907110B2, “Benzodioxepin-3-one compounds as dyes or as fluorescent emitters” (Merck Patent GmbH, priority 2011, dated 2014):

Legend:
Type in all cases: physicochemical
[1] = Absorption strength (absorption spectrum in ethanol); conditions: for λmax: absorption maximum, dilute solution; for λmax / Half-value width / intense absorption up to / spectral range covered compared with curcumin and beta-carotene: in ethanol; for E1 % value: extinction at the absorption maximum extrapolated to a concentration of 1 g/100 ml, ethanol; for Half-value width: half-value width of the absorption band
Experimental: The measure used for the absorption strength is the so-called E1% value, and the half-value width of the absorption band in relation to the absorption maximum λmax indicated. The E1% value indicates the extinction at the absorption maximum extrapolated to a concentration of 1 g/100 ml. To this end, an absorption spectrum of the substance in ethanol is recorded in dilute solution. The values are compared with the reference spectra of curcumin and beta-carotene.

[2] = Thermal stability by thermographic method (TGA); conditions: for Temperature at which 98% of the weight was still present: TGA, RT to 800° C., heating rate 10 K/min
Experimental: The thermal stability is determined with the aid of the thermographic method (instrument TGA Q5000 V3.10 Build 258, temperature range RT to 800° C., heating rate 10 K/min).

[3] = Solubility determination in phenethyl benzoate (X-Tend 226)
Experimental: The solubility determination was carried out in phenethyl benzoate (X-Tend 226): […]

[4] = Fluorescence measurements in ethanol; conditions: 0.00804-0.00820 mg/ml, cell thickness 1 cm
Experimental: The substance concentrations in ethanol indicated in the table are measured using an Aminco Bowman 2 fluorescence spectrometer (cell thickness 1 cm; excitation 220-600 nm; emission 220-800 nm; spectral gap width (excitation) 4 nm, (emission) 8 nm; recording speed 10 nm/min; step width (excitation) 5 nm, (emission) 4 nm.

Q: Which λmax [1] does the source give for `CC1=C(/C=C/C(C)=C/C=C/C(C)=C/C=C/C=C(C)/C=C/C=C(C)/C=C/C2=C(C)CCCC2(C)C)C(C)(C)CCC1` [Beta-carotene, beta-carotene, reference compound] here?
A: 453 nm

Q: What about the E1 % value [1] of the same compound?
A: 408

Q: And the Half-value width [1]?
A: approx. 88 nm

Q: And the “Temperature at which 98% of the weight was still present” value [2]?
A: 84 °C

Q: For `COc1cc(/C=C/C(=O)CC(=O)/C=C/c2ccc(O)c(OC)c2)ccc1O` [Curcumin, curcumin, reference compound], which λmax [1] is on record?
A: 426 nm

Q: What about the E1 % value [1] of the same compound?
A: 1507

Q: And the Half-value width [1]?
A: approx. 78 nm

Q: What about the “thermal stability (in words)” value [2] of the same compound?
A: not thermally stable

Q: And the “Temperature at which 98% of the weight was still present” value [2]?
A: 223 °C

Q: For `COc1cc(OC)c(OC)cc1/C=C1\Oc2ccc(C)cc2O/C(=C\c2cc(OC)c(OC)cc2OC)C1=O` [Example 1, 7-methyl-2,4-bis[1-(2,4,5-trimethoxyphenyl)meth-(Z)-ylidene]benzo[b]-1,4-dioxepin-3-one], which “Solubility in X-Tend 226” value [3] is on record?
A: 2.2%

Q: What about the λmax [1] of the same compound?
A: 437 nm

Q: And the E1 % value [1]?
A: 505

Q: And the Half-value width [1]?
A: approx. 102 nm

Q: What about the “intense absorption up to” value [1] of the same compound?
A: up to 539 nm

Q: And the “spectral range covered compared with curcumin and beta-carotene” value [1]?
A: significantly greater spectral range

Q: What about the Emission [4] of the same compound?
A: 412 nm

Q: And the “thermal stability (in words)” value [2]?
A: excellent

Q: What about the “Temperature at which 98% of the weight was still present” value [2] of the same compound?
A: 281 °C

Q: Which “intense absorption up to” value [1] does the source give for `COc1ccc(/C=C2\Oc3ccc(C)cc3O/C(=C\c3ccc(OC)cc3)C2=O)cc1` [Example 2, 2,4-bis[1-(4-methoxyphenyl)meth-(Z)-ylidene]-7-methylbenzo[b]-1,4-dioxepin-3-one] here?
A: up to 478 nm

Q: For `COc1ccc(/C=C2\Oc3ccc(C)cc3O/C(=C\c3ccc(OC)c(OC)c3)C2=O)cc1OC` [Example 3, 2,4-bis[1-(3,4-dimethoxyphenyl)-meth-(Z)-ylidene]-7-methylbenzo[b]-1,4-dioxepin-3-one], which “Solubility in X-Tend 226” value [3] is on record?
A: 4.5%

Q: What about the λmax [1] of the same compound?
A: 369 nm

Q: What about the E1 % value [1] of the same compound?
A: 515

Q: And the Half-value width [1]?
A: approx. 100 nm

Q: And the “spectral range covered compared with curcumin and beta-carotene” value [1]?
A: significantly greater spectral range

Q: And the Emission [4]?
A: 322 nm

Q: And the Excitation [4]?
A: 230 nm

Q: And the “thermal stability (in words)” value [2]?
A: excellent

Q: And the “Temperature at which 98% of the weight was still present” value [2]?
A: 286 °C

Q: For `CCCCN(CCCC)c1ccc(/C=C2\Oc3ccc(C)cc3O/C(=C\c3ccc(N(CCCC)CCCC)cc3)C2=O)cc1` [Example 8, 7-methyl-2,4-bis[1-(4-dibutylaminophenyl)meth-(Z)-ylidene]benzo[b]-1,4-dioxepin-3-one], which “Solubility in X-Tend 226” value [3] is on record?
A: 5.0%

Q: What about the λmax [1] of the same compound?
A: 484 nm

Q: What about the E1 % value [1] of the same compound?
A: 571

Q: What about the Half-value width [1] of the same compound?
A: approx. 122 nm

Q: What about the “intense absorption up to” value [1] of the same compound?
A: up to 609 nm

Q: And the “spectral range covered compared with curcumin and beta-carotene” value [1]?
A: significantly greater spectral range

Q: What about the Emission [4] of the same compound?
A: 320 nm

Q: What about the Excitation [4] of the same compound?
A: 260 nm

Q: And the “thermal stability (in words)” value [2]?
A: excellent

Q: And the “Temperature at which 98% of the weight was still present” value [2]?
A: 250 °C
